From publication PMC6987128, “Target protein-oriented isolation of Hes1 dimer inhibitors using protein based methods” (Scientific Reports, 2020)

System: C17.2 mouse neural stem cells
Assay: Neural stem cell differentiation assay (Tuj1/GFAP immunofluorescence staining)
Assay type: cell-based
Settings: C17.2 cells, 6 days; for increase of neurons compared to control: vs DMSO control
Source text: We recently developed another protein-based screening method, the target protein oriented natural products isolation method (TPO-NAPI) using protein beads (Fig. 2B). Agalloside, inohanamine, α-mangostine, BE-14106, isomicromonolactam, staurosporin and linarin were isolated as Hes1 binding compounds using the TPO-NAPI method[15],[17]. Rat Hes1 (1–95) containing basic and helix-loop-helix domains was immobilized because the helix-loop-helix domain is known to be important for Hes1-Hes1 interaction; therefore, utilizing this domain in the beads method would likely be effective for screening Hes1 dimer inhibitors. GST-Hes1 immobilized beads were prepared by mixing freshly prepared GST-Hes1 protein with glutathione Sepharose 4B beads. GST-only beads were prepared as a control. After incubating the beads with plant MeOH extracts at 4 °C for 2 h, bound compounds were eluted by adding EtOH and heating at 100 °C for 3 min, then the eluted compounds were analyzed by HPLC. […] The MeOH extract (64.6 g) of Terminalia chebula bark was partitioned with hexane, EtOAc and BuOH to obtain hexane (1.5 g), EtOAc (3.6 g), BuOH (42.6 g), and aqueous (20.5 g) soluble fractions. The EtOAc fraction contained the target peak and was subjected to silica gel column chromatography to give eight fractions (1A-H). Fraction 1D contained the target peak and was separated by ODS column chromatography and reverse-phase HPLC to give compound 11 (0.4 mg). Compound 11 was identified as 4-O-(4″-O-galloyl-α-L-rhamnopyranosyl)ellagic acid by comparison of its NMR data with reported spectral data[37]. […] This is the strongest Hes1 dimer inhibitor reported to date. The ability of 11 to accelerate the differentiation of C17.2 mouse neural stem cells was evaluated (Fig. 5). C17.2 cells (2 × 10^5 cells/mL) were seeded in a poly-L-lysine-coated 24 well plates and incubated for 24 h, then the cells were treated with DMSO (control), 100 μM valproic acid (VPA), 5 μM retinoic acid (RA) (positive controls) or 11 (1 or 5 μM) for 6 days. A confocal microscope was used to obtain images of differentiated neural cells after immunostaining class III β-tubulin (Tuj1) in neurons, and glial fibrillary acidic protein (GFAP) in astrocytes and nuclei (TO-PRO-3). […] In contrast, the control dish containing cells treated with DMSO contained small number of neurons.
C17.2 cells were cultured in proliferation medium [DMEM (DS Pharma Biomedical Co., Ltd. Osaka, Japan) supplemented with 10% fetal bovine serum (Biowest, Nuaillé, France), 5% horse serum (Gibco, Life Technologies, Tokyo, Japan)]. Neural differentiation of C17.2 cells was initiated by transferring the cells to differentiation medium [Neurobasal Medium (Gibco) supplemented with 2% B-27 without vitamin A (Gibco), 1% antibiotic-antimycotic (Gibco)]. All cultures were maintained in a humidified incubator at 37 °C in 5% CO2/95% air.
C17.2 cells were dissociated using the proliferation medium 2 × 10^5 cells/mL on cover glass (MATSUNAMI GLASS) coated with poly-L-lysine and fibronectin/laminin. After incubation for 24 h, cells were washed with D-MEM and treated with individual compounds in differentiation medium for 6 days.
C17.2 cells were fixed with 4% paraformaldehyde in PBS for 20 min at room temperature (r.t.) and washed with 1% BSA in PBS three times. After blocking with 10% BSA in 0.3% Triton X-100 in PBS for 45 min at r.t., fixed cells were incubated with primary antibodies (anti-βIII-Tubulin; Neuronal Class III, Mouse-Mono, 1:400, R&D Systems^TM; anti-GFAP, 1:400, VERITAS) for 12 h at 4 °C. After washing three times with 1% BSA in PBS (500 μL/well), cells were incubated with secondary antibodies (Alexa Fluor® 488 goat anti-mouse IgG (H + L), 1:400, Life Technologies; Alexa Fluor® 555 goat ant-rabbit IgG (H + L), 1:200, Life Technologies) for 1 hr at r.t. in the dark. […]

## CC1OC(Oc2cc3c(=O)oc4c(O)c(O)cc5c(=O)oc(c2O)c3c45)C(O)C(O)C1OC(=O)c1cc(O)c(O)c(O)c1 [Compound 11, 4-O-(4″-O-galloyl-α-L-rhamnopyranosyl)ellagic acid]
1 µM
  differentiated neurons: 33.6%
  increase of neurons compared to control: 67%
5 µM
  differentiated neurons: 45.4%
  increase of neurons compared to control: 125%
